Data reported in ChEMBL document CHEMBL2176906, “Diterpenoids isolated from Sideritis species protect astrocytes against oxidative stress via Nrf2” (J Nat Prod, 2012).
Active and inactive are the calls of the source. No cut-off for these calls is given here.

Molecular target: T1, Nuclear factor erythroid 2-related factor 2 (Homo sapiens) (UniProt Q16236)
T1 sequence (whole entry): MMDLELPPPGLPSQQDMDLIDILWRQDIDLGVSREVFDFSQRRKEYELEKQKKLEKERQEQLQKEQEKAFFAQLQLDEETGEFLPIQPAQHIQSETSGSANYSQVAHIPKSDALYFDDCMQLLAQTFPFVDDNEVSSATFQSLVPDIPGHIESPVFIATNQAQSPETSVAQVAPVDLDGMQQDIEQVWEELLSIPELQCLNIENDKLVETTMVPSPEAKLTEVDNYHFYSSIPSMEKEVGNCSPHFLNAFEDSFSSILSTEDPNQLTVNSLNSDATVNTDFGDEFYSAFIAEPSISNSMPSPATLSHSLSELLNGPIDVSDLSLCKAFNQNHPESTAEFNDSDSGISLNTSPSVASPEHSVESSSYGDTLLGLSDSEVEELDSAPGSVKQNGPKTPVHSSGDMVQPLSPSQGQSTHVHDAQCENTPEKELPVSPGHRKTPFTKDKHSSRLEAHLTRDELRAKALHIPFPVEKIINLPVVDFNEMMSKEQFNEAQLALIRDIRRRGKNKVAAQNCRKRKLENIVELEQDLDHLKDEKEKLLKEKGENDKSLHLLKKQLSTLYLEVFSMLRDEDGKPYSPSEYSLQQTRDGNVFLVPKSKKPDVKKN
Assay: Induction of Nrf2-mediated CAT protein expression in H2O2-stimulated human U373MG cells preincubated at 5 uM for 24 hrs before H2O2 challenge by Western blot method
Assay type: cell-based
Conditions: U-373MG ATCC
With C=CC(=C)CC[C@H]1[C@]2(C)CCC[C@](C)(CO)[C@H]2[C@H](O)C[C@]1(C)O [ANDALUSOL] the Activity was “Active”.

Molecular target: T1, Nuclear factor erythroid 2-related factor 2 (Homo sapiens)
Assay: Induction of Nrf2-mediated GPx protein expression in H2O2-stimulated human U373MG cells preincubated at 10 uM for 24 hrs before H2O2 challenge by Western blot method
Assay type: cell-based
Conditions: U-373MG ATCC
For C=CC(=C)CC[C@H]1[C@]2(C)CCC[C@](C)(CO)[C@H]2[C@H](O)C[C@]1(C)O [ANDALUSOL], the Activity was “Active”.

Molecular target: T1, Nuclear factor erythroid 2-related factor 2 (Homo sapiens)
Assay: Induction of Nrf2-mediated GPx protein expression in H2O2-stimulated human U373MG cells preincubated at 5 uM for 24 hrs before H2O2 challenge by Western blot method
Assay type: cell-based
Conditions: U-373MG ATCC
In the case of C=CC(=C)CC[C@H]1[C@]2(C)CCC[C@](C)(CO)[C@H]2[C@H](O)C[C@]1(C)O [ANDALUSOL], the Activity was “Active”.

Molecular target: T1, Nuclear factor erythroid 2-related factor 2 (Homo sapiens)
Assay: Induction of Nrf2-mediated SOD protein expression in H2O2-stimulated human U373MG cells preincubated at 10 uM for 24 hrs before H2O2 challenge by Western blot method
Assay type: cell-based
Conditions: U-373MG ATCC
For C=CC(=C)CC[C@H]1[C@]2(C)CCC[C@](C)(CO)[C@H]2[C@H](O)C[C@]1(C)O [ANDALUSOL], the Activity was “Active”.

Molecular target: T1, Nuclear factor erythroid 2-related factor 2 (Homo sapiens)
Assay: Induction of Nrf2-mediated SOD protein expression in H2O2-stimulated human U373MG cells preincubated at 5 uM for 24 hrs before H2O2 challenge by Western blot method
Assay type: cell-based
Conditions: U-373MG ATCC
With C=CC(=C)CC[C@H]1[C@]2(C)CCC[C@](C)(CO)[C@H]2[C@H](O)C[C@]1(C)O [ANDALUSOL] the Activity was “Active”.

Tested on: U373 MG
Assay: Induction of Nrf2 nuclear protein expression in H2O2-stimulated human U373MG cells preincubated at 5 uM for 24 hrs before H2O2 challenge by Western blot method
Assay type: functional, cell-based
Conditions: U-373MG ATCC
For C=CC(=C)CC[C@H]1[C@]2(C)CCC[C@](C)(CO)[C@H]2[C@H](O)C[C@]1(C)O [ANDALUSOL], the Activity was “Active”.

Tested on: U373 MG
Assay: Induction of HO-1 activity in human U373MG cells assessed as bilirubin production per mg protein preincubated at 10 uM for 24 hrs before H2O2 challenge by fluorimetric method (reference value: 19.6 +/-3.5 pmol/hr/mg protein)
Assay type: functional, U-373MG ATCC
Conditions: not given
Compound C=CC(=C)CC[C@H]1[C@]2(C)CCC[C@](C)(CO)[C@H]2[C@H](O)C[C@]1(C)O [ANDALUSOL] has an Activity of 33.6 pmol/h.

Tested on: U373 MG
Assay: Induction of HO-1 activity in human U373MG cells assessed as bilirubin production per mg protein preincubated at 5 uM for 24 hrs before H2O2 challenge by fluorimetric method (reference value: 19.6 +/-3.5 pmol/hr/mg protein)
Assay type: functional, U-373MG ATCC
Conditions: not given
C=CC(=C)CC[C@H]1[C@]2(C)CCC[C@](C)(CO)[C@H]2[C@H](O)C[C@]1(C)O [ANDALUSOL] gave an Activity of 30.6 pmol/h.

Tested on: U373 MG
Assay: Induction of total GPx activity in human U373MG cells assessed as […] per mg protein preincubated at 10 uM for 24 hrs before H2O2 challenge by fluorimetric method (reference value: 58.5 +/- 5.1 nmol/min/mg protein)
Assay type: functional, U-373MG ATCC
Conditions: not given
Compound C=CC(=C)CC[C@H]1[C@]2(C)CCC[C@](C)(CO)[C@H]2[C@H](O)C[C@]1(C)O [ANDALUSOL] has an Activity of 82.4 nmol/min.

Tested on: U373 MG
Assay: Induction of total GPx activity in human U373MG cells assessed as […] per mg protein preincubated at 5 uM for 24 hrs before H2O2 challenge by fluorimetric method (reference value: 58.5 +/- 5.1 nmol/min/mg protein)
Assay type: functional, U-373MG ATCC
Conditions: not given
C=CC(=C)CC[C@H]1[C@]2(C)CCC[C@](C)(CO)[C@H]2[C@H](O)C[C@]1(C)O [ANDALUSOL] gave an Activity of 89.1 nmol/min.

Tested on: U373 MG
Assay: Induction of selenium-dependent GPx activity in human U373MG cells assessed as […] per mg protein preincubated at 10 uM for 24 hrs before H2O2 challenge by fluorimetric method (reference value: 14.7 +/- 2.9 nmol/min/mg protein)
Assay type: functional, U-373MG ATCC
Conditions: not given
For C=CC(=C)CC[C@H]1[C@]2(C)CCC[C@](C)(CO)[C@H]2[C@H](O)C[C@]1(C)O [ANDALUSOL], the Activity was 29.9 nmol/min.

Tested on: U373 MG
Assay: Induction of selenium-dependent GPx activity in human U373MG cells assessed as […] per mg protein preincubated at 5 uM for 24 hrs before H2O2 challenge by fluorimetric method (reference value: 14.7 +/- 2.9 nmol/min/mg protein)
Assay type: functional, U-373MG ATCC
Conditions: not given
Work on C=CC(=C)CC[C@H]1[C@]2(C)CCC[C@](C)(CO)[C@H]2[C@H](O)C[C@]1(C)O [ANDALUSOL] yielded an Activity of 23.9 nmol/min.

Tested on: U373 MG
Assay: Induction of Glutathione reductase activity in human U373MG cells assessed as […] per mg protein preincubated at 5 uM for 24 hrs before H2O2 challenge by fluorimetric method (reference value: 9.3 +/- 2.2 nmol/min/mg protein)
Assay type: functional, U-373MG ATCC
Conditions: not given
Compound C=CC(=C)CC[C@H]1[C@]2(C)CCC[C@](C)(CO)[C@H]2[C@H](O)C[C@]1(C)O [ANDALUSOL] has an Activity of 19.1 nmol/min.

Tested on: U373 MG
Assay: Induction of SOD activity in human U373MG cells assessed per mg protein preincubated at 10 uM for 24 hrs before H2O2 challenge by fluorimetric method (reference value: 14.2 +/- 3 UI/mg protein)
Assay type: functional, U-373MG ATCC
Conditions: not given
Work on C=CC(=C)CC[C@H]1[C@]2(C)CCC[C@](C)(CO)[C@H]2[C@H](O)C[C@]1(C)O [ANDALUSOL] yielded an Activity of 26 IU.

Tested on: U373 MG
Assay: Induction of SOD activity in human U373MG cells assessed per mg protein preincubated at 5 uM for 24 hrs before H2O2 challenge by fluorimetric method (reference value: 14.2 +/- 3 UI/mg protein)
Assay type: functional, U-373MG ATCC
Conditions: not given
C=CC(=C)CC[C@H]1[C@]2(C)CCC[C@](C)(CO)[C@H]2[C@H](O)C[C@]1(C)O [ANDALUSOL] showed an Activity of 24.7 IU.

Tested on: U373 MG
Assay: Induction of CAT activity in human U373MG cells assessed per mg protein preincubated at 5 uM for 24 hrs before H2O2 challenge by fluorimetric method (reference value: 18.9 +/- 0.4 UI/mg protein)
Assay type: functional, U-373MG ATCC
Conditions: not given
In the case of C=CC(=C)CC[C@H]1[C@]2(C)CCC[C@](C)(CO)[C@H]2[C@H](O)C[C@]1(C)O [ANDALUSOL], the Activity was 22.1 IU.

Tested on: U373 MG
Assay: Inhibition of AAPH-induced oxidative stress in human U373MG cells assessed as peroxy radical scavenging activity at 10 uM by ORAC assay
Assay type: functional, cell-based
Conditions: U-373MG ATCC
In the case of C=CC(=C)CC[C@H]1[C@]2(C)CCC[C@](C)(CO)[C@H]2[C@H](O)C[C@]1(C)O [ANDALUSOL], the Activity was “inactive”.

Tested on: U373 MG
Assay: Inhibition of AAPH-induced oxidative stress in human U373MG cells assessed as peroxy radical scavenging activity at 5 uM by ORAC assay
Assay type: functional, cell-based
Conditions: U-373MG ATCC
For C=CC(=C)CC[C@H]1[C@]2(C)CCC[C@](C)(CO)[C@H]2[C@H](O)C[C@]1(C)O [ANDALUSOL], the Activity was “inactive”.

Tested on: U373 MG
Assay: Inhibition of H2O2-induced oxidative stress in human U373MG cells assessed as GSH/GSSG ratio at 5 uM (reference value: 1.8 +/- 0.1 )
Assay type: functional, U-373MG ATCC
Conditions: not given
For C=CC(=C)CC[C@H]1[C@]2(C)CCC[C@](C)(CO)[C@H]2[C@H](O)C[C@]1(C)O [ANDALUSOL], the Ratio was 5.1.

Tested on: U373 MG
Assay: Inhibition of H2O2-induced oxidative stress in human U373MG cells assessed as GSH/GSSG ratio at 10 uM (reference value: 1.8 +/- 0.1 )
Assay type: functional, U-373MG ATCC
Conditions: not given
In the case of C=CC(=C)CC[C@H]1[C@]2(C)CCC[C@](C)(CO)[C@H]2[C@H](O)C[C@]1(C)O [ANDALUSOL], the Ratio was 5.7.

Tested on: U373 MG
Assay: Inhibition of H2O2-induced oxidative stress in human U373MG cells assessed as GSSG level per mg protein at 5 uM by fluorimetric method (reference value: 9.2 +/- 0.9 nmol/mg protein)
Assay type: functional, U-373MG ATCC
Conditions: not given
For C=CC(=C)CC[C@H]1[C@]2(C)CCC[C@](C)(CO)[C@H]2[C@H](O)C[C@]1(C)O [ANDALUSOL], the Activity was 7 nmol.

Tested on: U373 MG
Assay: Inhibition of H2O2-induced oxidative stress in human U373MG cells assessed as GSH level per mg protein at 5 uM by fluorimetric method (reference value: 17.1 +/- 1.7 nmol/mg protein)
Assay type: functional, U-373MG ATCC
Conditions: not given
With C=CC(=C)CC[C@H]1[C@]2(C)CCC[C@](C)(CO)[C@H]2[C@H](O)C[C@]1(C)O [ANDALUSOL] the Activity was 36.3 nmol.

Tested on: U373 MG
Assay: Induction of ROS production in human U373MG cells at 10 uM after 24 hrs by DCFH-DA assay
Assay type: functional, cell-based
Conditions: U-373MG ATCC
With C=CC(=C)CC[C@H]1[C@]2(C)CCC[C@](C)(CO)[C@H]2[C@H](O)C[C@]1(C)O [ANDALUSOL] the Activity was “inactive”.

Tested on: U373 MG
Assay: Induction of ROS production in human U373MG cells at 5 uM after 24 hrs by DCFH-DA assay
Assay type: functional, cell-based
Conditions: U-373MG ATCC
In the case of C=CC(=C)CC[C@H]1[C@]2(C)CCC[C@](C)(CO)[C@H]2[C@H](O)C[C@]1(C)O [ANDALUSOL], the Activity was “inactive”.

Tested on: U-373MG ATCC
Assay: Antioxidant activity in human U373MG cells assessed as reduction in H2O2-induced morphological changes preincubated at 5 uM for 24 hrs before H2O2 challenge by phase-contrast microscopy
Assay type: functional, cell-based
Conditions: not given
For C=CC(=C)CC[C@H]1[C@]2(C)CCC[C@](C)(CO)[C@H]2[C@H](O)C[C@]1(C)O [ANDALUSOL], the Activity was “Active”.

Tested on: not listed separately
Assay: Cytotoxicity against human U373MG cells assessed as LDH release at 1 to 10 uM after 24 hrs by LDH assay
Assay type: cell-based
Conditions: u-373mg atcc
With C=CC(=C)CC[C@H]1[C@]2(C)CCC[C@](C)(CO)[C@H]2[C@H](O)C[C@]1(C)O [ANDALUSOL] the Activity was under 10%.
